In publication PMC8509773, “3-Pyridinylidene Derivatives of Chemically Modified Lupane and Ursane Triterpenes as Promising Anticancer Agents by Targeting Apoptosis” (International Journal of Molecular Sciences, 2021):

Assays:
Assay in all cases: NCI-60 SRB screening (one-dose and five-dose)
Format in all cases: cell-based, human
DU-145 = settings: 48 h
Procedure, shortened: (§1)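 After a 48-h incubation with compound, cellular protein was stained with SRB and growth estimated by spectrophotometry relative to untreated controls.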

UACC-257 = settings: 48 h
Procedure, shortened: as §1

NCI-H522 = settings: 48 h
Procedure, shortened: (§2)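 SRB colorimetric growth assay; cultures exposed to compound for 48 h at a single concentration, values normalised to untreated cells.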

NCI-H322M = settings: 48 h
Procedure, shortened: as §2

MDA-MB-231/ATCC = settings: 48 h
Procedure, shortened: as §1

SK-MEL-2 = settings: 48 h
Procedure, shortened: as §1

CCRF-CEM = settings: 48 h
Procedure, shortened: as §1

HCC-2998 = settings: 48 h
Procedure, shortened: as §1

HT29 = settings: 48 h
Procedure, shortened: as §1

SW-620 = settings: 48 h
Procedure, shortened: as §1

IGROV1 = settings: 48 h
Procedure, shortened: as §1

MDA-MB-435 = settings: 48 h
Procedure, shortened: as §1

U251 = settings: 48 h
Procedure, shortened: as §2

CAKI-1 = settings: 48 h
Procedure, shortened: as §1

SR = settings: 48 h
Procedure, shortened: as §2

OVCAR-8 = settings: 48 h
Procedure, shortened: as §1

SK-MEL-5 = settings: 48 h
Procedure, shortened: as §1

OVCAR-5 = settings: 48 h
Procedure, shortened: as §1

LOX IMVI = settings: Homo sapiens, five dose 0.01–100 μM, 48 h
Procedure, shortened: as §2

HCT-15 = settings: 48 h
Procedure, shortened: as §1

SK-OV-3 = settings: 48 h
Procedure, shortened: as §1

T-47D = settings: 48 h
Procedure, shortened: as §1

TK-10 = settings: 48 h
Procedure, shortened: as §2

HOP-92 = settings: 48 h
Procedure, shortened: as §1

RXF 393 = settings: 48 h
Procedure, shortened: as §2

HS 578T = settings: 48 h
Procedure, shortened: as §1

MALME-3M = settings: 48 h
Procedure, shortened: as §1

MOLT-4 = settings: 48 h
Procedure, shortened: as §2

HCT-116 = settings: 48 h
Procedure, shortened: as §1

SF-539 = settings: 48 h
Procedure, shortened: as §1

SF-295 = settings: 48 h
Procedure, shortened: as §1

MDA-MB-468 = settings: 48 h
Procedure, shortened: as §1

UO-31 = settings: 48 h
Procedure, shortened: as §1

HOP-62 = settings: 48 h
Procedure, shortened: as §1

OVCAR-3 = settings: 48 h
Procedure, shortened: as §1

786-0 = settings: 48 h
Procedure, shortened: as §1

SNB-19 = settings: 48 h
Procedure, shortened: as §1

ACHN = settings: 48 h
Procedure, shortened: as §1

SN12C = settings: 48 h
Procedure, shortened: as §2

A549/ATCC = settings: 48 h
Procedure, shortened: as §1

[1] = Homo sapiens, five dose 0.01–100 μM

COC(=O)[C@]12CC[C@@H](C(=O)/C=C/c3cccnc3)[C@@H]1[C@H]1CC[C@@H]3[C@@]4(C)C/C(=C\c5cccnc5)C(=O)C(C)(C)[C@@H]4CC[C@@]3(C)[C@]1(C)CC2 [Compound 7, methyl 2,30-bis-(3-pyridinylidene)-3,20-dioxo-lup-28-oate]
Growth Percent (DU-145; DU-145, 10 μM): −67.84%
GI50 (DU-145; Homo sapiens, DU-145, five dose 0.01–100 μM): 1.53 µM
GI50 (UACC-257; Homo sapiens, UACC-257, five dose 0.01–100 μM): 0.27 µM
Growth Percent (UACC-257; UACC-257, 10 μM): −58.90%
GI50 (NCI-H522; Homo sapiens, NCI-H522, five dose 0.01–100 μM): 0.66 µM
Growth Percent (NCI-H522; NCI-H522, 10 μM): −59.72%
Growth Percent (NCI-H322M; 10 μM): −80.71%
GI50 (NCI-H322M; [1]): 1.48 µM
Growth Percent (MDA-MB-231/ATCC; 10 μM): −81.32%
GI50 (MDA-MB-231/ATCC; [1]): 0.47 µM
GI50 (SK-MEL-2; Homo sapiens, SK-MEL-2, five dose 0.01–100 μM): 0.47 µM
Growth Percent (SK-MEL-2; SK-MEL-2, 10 μM): -61.15%
Growth Percent (CCRF-CEM; 10 μM): 0.95%
GI50 (CCRF-CEM; [1]): 0.31 µM
Growth Percent (HCC-2998; HCC-2998, 10 μM): −55.45%
GI50 (HCC-2998; Homo sapiens, HCC-2998, five dose 0.01–100 μM): 0.67 µM
Growth Percent (HT29; HT29, 10 μM): −45.47%
GI50 (HT29; Homo sapiens, HT-29, HT29, five dose 0.01–100 μM): 0.32 µM
GI50 (SW-620; Homo sapiens, SW-620, five dose 0.01–100 μM): 0.3 µM
Growth Percent (SW-620; SW-620, 10 μM): −67.32%
GI50 (IGROV1; Homo sapiens, IGROV-1, IGROV1, five dose 0.01–100 μM): 0.27 µM
Growth Percent (IGROV1; IGROV1, 10 μM): −87.88%
GI50 (MDA-MB-435; Homo sapiens, MDA-MB-435, MDA-B-435, five dose 0.01–100 μM): 0.2 µM
Growth Percent (MDA-MB-435; MDA-MB-435, 10 μM): −69.71%
GI50 (U251; Homo sapiens, U-251, U251, five dose 0.01–100 μM): 0.36 µM
Growth Percent (U251; U251, 10 μM): −87.90%
Growth Percent (CAKI-1; CAKI-1, 10 μM): −78.75%
GI50 (CAKI-1; Homo sapiens, CAKI-1, five dose 0.01–100 μM): 1.09 µM
Growth Percent (SR; 10 μM): −14.07%
GI50 (SR; [1]): 0.27 µM
GI50 (OVCAR-8; Homo sapiens, OVCAR-8, five dose 0.01–100 μM): 0.34 µM
Growth Percent (OVCAR-8; OVCAR-8, 10 μM): −34.25%
GI50 (SK-MEL-5; Homo sapiens, SK-MEL-5, five dose 0.01–100 μM): 0.46 µM
Growth Percent (SK-MEL-5; SK-MEL-5, 10 μM): −98.85%
GI50 (OVCAR-5; Homo sapiens, OVCAR-5, five dose 0.01–100 μM): 0.41 µM
Growth Percent (OVCAR-5; OVCAR-5, 10 μM): −62.74%
GI50 (LOX IMVI): 0.21 µM
Growth Percent (HCT-15; HCT-15, 10 μM): −46.22%
GI50 (HCT-15; Homo sapiens, HCT-15, five dose 0.01–100 μM): 0.24 µM
GI50 (SK-OV-3; Homo sapiens, SK-OV-3, five dose 0.01–100 μM): 1.43 µM
Growth Percent (SK-OV-3; SK-OV-3, 10 μM): −23.10%
GI50 (T-47D; Homo sapiens, T47D, T -47D, five dose 0.01–100 μM): 0.43 µM
Growth Percent (T-47D; T-47D, 10 μM): −43.57%
GI50 (TK-10; Homo sapiens, TK-10, five dose 0.01–100 μM): 0.65 µM
Growth Percent (TK-10; TK-10, 10 μM): −60.49%
Growth Percent (HOP-92; HOP-92, 10 μM): −79.86%
GI50 (HOP-92; Homo sapiens, HOP-92, five dose 0.01–100 μM): 0.53 µM
GI50 (RXF 393; Homo sapiens, RXF 393, five dose 0.01–100 μM): 0.27 µM
Growth Percent (RXF 393; RXF 393, 10 μM): −93.62%
Growth Percent (HS 578T; 10 μM): −49.05%
GI50 (HS 578T; [1]): 0.46 µM
Growth Percent (MALME-3M; 10 μM): −95.19%
GI50 (MALME-3M; [1]): 0.21 µM
GI50 (MOLT-4; Homo sapiens, MOLT-4, five dose 0.01–100 μM): 0.3 µM
Growth Percent (MOLT-4; MOLT-4, 10 μM): −31.34%
Growth Percent (HCT-116; HCT-116, 10 μM): −87.45%
GI50 (HCT-116; Homo sapiens, HCT-116, five dose 0.01–100 μM): 0.2 µM
GI50 (SF-539; Homo sapiens, SF-539, five dose 0.01–100 μM): 0.24 µM
Growth Percent (SF-539; SF-539, 10 μM): −96.48%
GI50 (SF-295; Homo sapiens, SF-295, five dose 0.01–100 μM): 0.44 µM
Growth Percent (SF-295; SF-295, 10 μM): −98.52%
GI50 (MDA-MB-468; Homo sapiens, MDA-MB-468, five dose 0.01–100 μM): 0.27 µM
Growth Percent (MDA-MB-468; MDA-MB-468, 10 μM): −76.12%
GI50 (UO-31; Homo sapiens, UO-31, five dose 0.01–100 μM): 0.17 µM
Growth Percent (UO-31; UO-31, 10 μM): −100.00%
Growth Percent (HOP-62; HOP-62, 10 μM): −85.57%
GI50 (HOP-62; Homo sapiens, HOP-62, five dose 0.01–100 μM): 0.69 µM
GI50 (OVCAR-3; Homo sapiens, OVCAR-3, five dose 0.01–100 μM): 0.27 µM
Growth Percent (OVCAR-3; OVCAR-3, 10 μM): −93.24%
Growth Percent (786-0; 786-0, 10 μM): −92.26%
GI50 (786-0; Homo sapiens, 786-0, five dose 0.01–100 μM): 0.31 µM
GI50 (SNB-19; Homo sapiens, SNB-19, five dose 0.01–100 μM): 0.69 µM
Growth Percent (SNB-19; SNB-19, 10 μM): −87.62%
Growth Percent (ACHN; 10 μM): −100.00%
GI50 (ACHN; [1]): 0.19 µM
Growth Percent (SN12C; 10 μM): −77.80%
GI50 (SN12C; [1]): 0.39 µM
Growth Percent (A549/ATCC; 10 μM): −9.34%
GI50 (A549/ATCC; [1]): 0.39 µM
